According to patent US20240173312A1, “Pharmaceutical Composition Comprising a Benzoheterocyclic Compound and Androgen Receptor Pathway Modulator and Application Thereof” (KANGPU BIOPHARMACEUTICALS, LTD., priority 2015, published 2024):
Where two headings read alike, the source gives them in different places.

Legend:
[1] = test system: Vcap cells (androgen receptor (+) prostate cancer cells); experiment: CTG cell proliferation assay (CellTiter-Glo)
Method: (§1) In vitro test of the inhibition effect of the compound in combination with androgen receptor pathway modulators and the like on the prostate cancer cell proliferation.
(§2) The tested compounds were used alone or in combination with other androgen receptor pathway modulators respectively. […] After that, 100 μl of CellTiter-Glo® cell viability assay reagent (Promega, catalogue number G7570) was added to each well and mixed well on a vibrator for 10 minutes to induce cell lysis. The 96-well plate was placed at room temperature for 10 minutes, so as to stabilize its luminescence signal. A white bottom membrane was pasted on the bottom of the plate and the plate was tested using EnSpire.

[2] = test system: Vcap cells (androgen receptor (+) prostate cancer cells)
Method: as §1, §2

[3] = Homo sapiens, VCaP, 120 h, read-out: Survival rate of Vcap cells, Table 3, tested compound alone, 0.1 μM
[4] = Homo sapiens, VCaP, 120 h, read-out: Survival rate of Vcap cells, Table 3, tested compound alone, 1.0 μM
[5] = Homo sapiens, VCaP, 120 h, read-out: Survival rate of Vcap cells, Table 3, tested compound alone, 10 μM
[6] = Homo sapiens, VCaP, 120 h, read-out: Survival rate of Vcap cells, Table 4, tested compound alone, 0.1 μM
[7] = Homo sapiens, VCaP, 120 h, read-out: Survival rate of Vcap cells, Table 4, tested compound alone, 1 μM
[8] = Homo sapiens, VCaP, 120 h, read-out: Survival rate of Vcap cells, Table 4, tested compound alone, 10 μM
[9] = Homo sapiens, VCaP, 120 h, read-out: Survival rate of Vcap cells, Table 5, tested compound alone, 0.1 μM
[10] = Homo sapiens, VCaP, 120 h, read-out: Survival rate of Vcap cells, Table 5, tested compound alone, 1.0 μM
[11] = Homo sapiens, VCaP, 120 h, read-out: Survival rate of Vcap cells, Table 5, tested compound alone, 10 μM
[12] = Homo sapiens, VCaP, 120 h, read-out: Survival rate of Vcap cells, Table 10, tested compound alone, 0.1 μM
[13] = Homo sapiens, VCaP, 120 h, read-out: Survival rate of Vcap cells, Table 10, tested compound alone, 1.0 μM
[14] = Homo sapiens, VCaP, 120 h, read-out: Survival rate of Vcap cells, Table 10, tested compound alone, 10 μM
[15] = Homo sapiens, VCaP, 120 h, read-out: Vcap cell proliferation inhibition rate
[16] = Table 3, tested compound 0.1 μM in combination with 1 μM ARN-509
[17] = Table 3, tested compound 0.1 μM in combination with 1 μM Enzalutamide
[18] = Table 3, tested compound 1.0 μM in combination with 1 μM ARN-509
[19] = Table 3, tested compound 1.0 μM in combination with 1 μM Enzalutamide
[20] = Table 3, tested compound 10 μM in combination with 1 μM ARN-509
[21] = Table 3, tested compound 10 μM in combination with 1 μM Enzalutamide
[22] = Table 3, tested compound alone, 1.0 μM
[23] = Table 4, tested compound 0.1 μM in combination with 1 μM Abiraterone acetate
[24] = Table 4, tested compound 0.1 μM in combination with 1 μM Galeterone
[25] = Table 4, tested compound 1 μM in combination with 1 μM Abiraterone acetate
[26] = Table 4, tested compound 1 μM in combination with 1 μM Galeterone
[27] = Table 4, tested compound 10 μM in combination with 1 μM Abiraterone acetate
[28] = Table 4, tested compound 10 μM in combination with 1 μM Galeterone
[29] = Table 4, tested compound alone, 1 μM
[30] = Table 5, tested compound 0.1 μM in combination with 1 μM ODM-201
[31] = Table 5, tested compound 1.0 μM in combination with 1 μM ODM-201
[32] = Table 5, tested compound 10 μM in combination with 1 μM ODM-201
[33] = Table 5, tested compound alone, 1.0 μM
[34] = Table 10, tested compound 0.1 μM in combination with 1 μM B001
[35] = Table 10, tested compound 1.0 μM in combination with 1 μM B001
[36] = Table 10, tested compound 10 μM in combination with 1 μM B001
[37] = Table 10, tested compound 0.1 μM in combination with 1 μM K001
[38] = Table 10, tested compound 1.0 μM in combination with 1 μM K001
[39] = Table 10, tested compound 10 μM in combination with 1 μM K001

## Nc1cccc2c1CN(C1CCC(=O)NC1=O)C2=O (stereo not drawn) [B001]
[1]; [3]
  viability at 0.1 µM: 92%
[1]; [4]
  viability at 1 µM: 82.8%
[1]; [5]
  viability at 10 µM: 81.9%
[1]; [6]
  viability at 0.1 µM: 92%
[1]; [7]
  viability at 1 µM: 82.8%
[1]; [8]
  viability at 10 µM: 81.9%
[1]; [9]
  viability at 0.1 µM: 87.7%
[1]; [10]
  viability at 1 µM: 75.3%
[1]; [11]
  viability at 10 µM: 72.3%
[1]; Homo sapiens, VCaP, 120 h, read-out: Survival rate of Vcap cells, Table 9, tested compound alone, 0.1 μM
  viability at 0.1 µM: 83.9%
[1]; Homo sapiens, VCaP, 120 h, read-out: Survival rate of Vcap cells, Table 9, tested compound alone, 1.0 μM
  viability at 1 µM: 74.8%
[1]; Homo sapiens, VCaP, 120 h, read-out: Survival rate of Vcap cells, Table 9, tested compound alone, 10 μM
  viability at 10 µM: 69.1%
[1]; [12]
  viability at 0.1 µM: 83.9%
[1]; [13]
  viability at 1 µM: 74.7%
[1]; [14]
  viability at 10 µM: 69.1%
[1]; [15]
  inhibition at 0.41 µM: 18.7%
  inhibition at 1.23 µM: 20.7%
  inhibition at 11.11 µM: 20.9%
  inhibition at 33.33 µM: 22%
  inhibition at 100 µM: 19.6%
[1]; [16]
  Survival rate of Vcap cells: 42.0%
[1]; [17]
  Survival rate of Vcap cells: 40.3%
[1]; [18]
  Survival rate of Vcap cells: 34.7%
[1]; [19]
  Survival rate of Vcap cells: 35.6%
[1]; [20]
  Survival rate of Vcap cells: 33.5%
[1]; [21]
  Survival rate of Vcap cells: 33.7%
[1]; [22]
  Survival rate of Vcap cells: 82.8%
[1]; [23]
  Survival rate of Vcap cells: 78.5%
[1]; [24]
  Survival rate of Vcap cells: 51.1%
[1]; [25]
  Survival rate of Vcap cells: 68.0%
[1]; [26]
  Survival rate of Vcap cells: 43.3%
[1]; [27]
  Survival rate of Vcap cells: 62.9%
[1]; [28]
  Survival rate of Vcap cells: 42.8%
[1]; [29]
  Survival rate of Vcap cells: 82.8%
[1]; [30]
  Survival rate of Vcap cells: 52.7%
[1]; [31]
  Survival rate of Vcap cells: 41.4%
[1]; [32]
  Survival rate of Vcap cells: 37.5%
[1]; [33]
  Survival rate of Vcap cells: 75.3%
[1]; Table 9, tested compound 0.1 μM in combination with 1 μM ARN-509
  Survival rate of Vcap cells: 50.9%
[1]; Table 9, tested compound 0.1 μM in combination with 1 μM Enzalutamide
  Survival rate of Vcap cells: 52.1%
[1]; Table 9, tested compound 1.0 μM in combination with 1 μM ARN-509
  Survival rate of Vcap cells: 42.6%
[1]; Table 9, tested compound 1.0 μM in combination with 1 μM Enzalutamide
  Survival rate of Vcap cells: 42.3%
[1]; Table 9, tested compound 10 μM in combination with 1 μM ARN-509
  Survival rate of Vcap cells: 40.9%
[1]; Table 9, tested compound 10 μM in combination with 1 μM Enzalutamide
  Survival rate of Vcap cells: 38.4%
[1]; notes of Table 9: 1.0 μM tested compound in combination with 1.0 μM Enzalutamide
  Cell survival rate: 42.6%
[2]
  inhibition: 21.4%

## O=C1CCC(N2Cc3c(OCc4ccc(CN5CCOCC5)cc4)cccc3C2=O)C(=O)N1 (stereo not drawn) [D107]
[1]; [3]
  viability at 0.1 µM: 85.3%
[1]; [4]
  viability at 1 µM: 77.2%
[1]; [5]
  viability at 10 µM: 69.3%
[1]; [6]
  viability at 0.1 µM: 85.3%
[1]; [7]
  viability at 1 µM: 77.2%
[1]; [8]
  viability at 10 µM: 69.3%
[1]; [16]
  Survival rate of Vcap cells: 37.0%
[1]; [17]
  Survival rate of Vcap cells: 37.3%
[1]; [18]
  Survival rate of Vcap cells: 36.3%
[1]; [19]
  Survival rate of Vcap cells: 35.0%
[1]; [20]
  Survival rate of Vcap cells: 34.2%
[1]; [21]
  Survival rate of Vcap cells: 32.3%
[1]; [22]
  Survival rate of Vcap cells: 77.2%
[1]; [23]
  Survival rate of Vcap cells: 66.0%
[1]; [24]
  Survival rate of Vcap cells: 43.9%
[1]; [25]
  Survival rate of Vcap cells: 61.7%
[1]; [26]
  Survival rate of Vcap cells: 42.4%
[1]; [27]
  Survival rate of Vcap cells: 59.6%
[1]; [28]
  Survival rate of Vcap cells: 40.0%
[1]; [29]
  Survival rate of Vcap cells: 77.2%

## O=C1CC[C@H](N2Cc3c(OCc4ccc(CN5CCOCC5)cc4)cccc3C2=O)C(=O)N1 [D108]
[1]; [9]
  viability at 0.1 µM: 73%
[1]; [10]
  viability at 1 µM: 67.3%
[1]; [11]
  viability at 10 µM: 58.5%
[1]; [30]
  Survival rate of Vcap cells: 42.7%
[1]; [31]
  Survival rate of Vcap cells: 40.1%
[1]; [32]
  Survival rate of Vcap cells: 32.8%
[1]; [33]
  Survival rate of Vcap cells: 67.3%

## Nc1cccc2c1C(=O)N(C1CCC(=O)NC1=O)C2=O (stereo not drawn) [F001]
[1]; [9]
  viability at 0.1 µM: 79.7%
[1]; [10]
  viability at 1 µM: 59.9%
[1]; [11]
  viability at 10 µM: 55.7%
[1]; [30]
  Survival rate of Vcap cells: 49.4%
[1]; [31]
  Survival rate of Vcap cells: 40.9%
[1]; [32]
  Survival rate of Vcap cells: 37.3%
[1]; [33]
  Survival rate of Vcap cells: 59.9%

## C[C@]12CC[C@H](O)CC1=CC[C@@H]1[C@@H]2CC[C@]2(C)C(n3cnc4ccccc43)=CC[C@@H]12 [Galeterone, reference compound]
[1]; Table 4, tested compound alone, 0.1 μM
  Survival rate of Vcap cells: 95.9%
[1]; [29]
  Survival rate of Vcap cells: 62.8%
[1]; Table 4, tested compound alone, 10 μM
  Survival rate of Vcap cells: 19.3%

## Cc1nc2cccc(N)c2c(=O)n1C1CCC(=O)NC1=O (stereo not drawn) [K001]
[1]; [3]
  viability at 0.1 µM: 85.1%
[1]; [4]
  viability at 1 µM: 65.8%
[1]; [5]
  viability at 10 µM: 61.4%
[1]; [6]
  viability at 0.1 µM: 85.1%
[1]; [7]
  viability at 1 µM: 65.8%
[1]; [8]
  viability at 10 µM: 61.4%
[1]; [9]
  viability at 0.1 µM: 79.2%
[1]; [10]
  viability at 1 µM: 59.7%
[1]; [11]
  viability at 10 µM: 51%
[1]; [12]
  viability at 0.1 µM: 91.2%
[1]; [13]
  viability at 1 µM: 73.8%
[1]; [14]
  viability at 10 µM: 66.1%
[1]; [16]
  Survival rate of Vcap cells: 43.6%
[1]; [17]
  Survival rate of Vcap cells: 42.4%
[1]; [18]
  Survival rate of Vcap cells: 36.0%
[1]; [19]
  Survival rate of Vcap cells: 36.4%
[1]; [20]
  Survival rate of Vcap cells: 33.5%
[1]; [21]
  Survival rate of Vcap cells: 35.1%
[1]; [22]
  Survival rate of Vcap cells: 65.8%
[1]; [23]
  Survival rate of Vcap cells: 70.4%
[1]; [24]
  Survival rate of Vcap cells: 49.1%
[1]; [25]
  Survival rate of Vcap cells: 53.1%
[1]; [26]
  Survival rate of Vcap cells: 41.3%
[1]; [27]
  Survival rate of Vcap cells: 48.1%
[1]; [28]
  Survival rate of Vcap cells: 39.4%
[1]; [29]
  Survival rate of Vcap cells: 65.8%
[1]; [30]
  Survival rate of Vcap cells: 53.5%
[1]; [31]
  Survival rate of Vcap cells: 40.4%
[1]; [32]
  Survival rate of Vcap cells: 35.2%
[1]; [33]
  Survival rate of Vcap cells: 59.7%

## C[C@](O)(COc1ccc(C#N)cc1)C(=O)Nc1ccc(C#N)c(C(F)(F)F)c1 [MK-2866, reference compound]
[1]; [12]
  viability at 0.1 µM: 76.5%
[1]; [13]
  viability at 1 µM: 77.4%
[1]; [14]
  viability at 10 µM: 69.4%
[1]; [34]
  Survival rate of Vcap cells: 64.8%
[1]; [35]
  Survival rate of Vcap cells: 65.6%
[1]; [36]
  Survival rate of Vcap cells: 57.8%

## CC(O)c1cc(C(=O)N[C@@H](C)Cn2ccc(-c3ccc(C#N)c(Cl)c3)n2)[nH]n1 (stereo partly drawn) [ODM-201, reference compound]
[1]; [9]
  viability at 0.1 µM: 90.7%
[1]; [10]
  viability at 1 µM: 69%
[1]; [11]
  viability at 10 µM: 75.4%
[1]; [33]
  Survival rate of Vcap cells: 69.0%

## C[C@]12C=CC(=O)C=C1CC[C@@H]1[C@@H]2C(=O)C[C@@]2(C)[C@H]1CC[C@]2(O)C(=O)CO [Prednisone, reference compound]
[1]; [12]
  viability at 0.1 µM: 99.1%
[1]; [13]
  viability at 1 µM: 99.7%
[1]; [14]
  viability at 10 µM: 99.4%
[1]; [34]
  Survival rate of Vcap cells: 87.6%
[1]; [37]
  Survival rate of Vcap cells: 91.5%
[1]; [35]
  Survival rate of Vcap cells: 78.7%
[1]; [38]
  Survival rate of Vcap cells: 74.2%
[1]; [36]
  Survival rate of Vcap cells: 73.8%
[1]; [39]
  Survival rate of Vcap cells: 68.0%

## CC(O)(CS(=O)(=O)c1ccc(F)cc1)C(=O)Nc1ccc(C#N)c(C(F)(F)F)c1 (stereo not drawn) [bicalutamide, reference compound]
[1]; [12]
  viability at 0.1 µM: 99.2%
[1]; [13]
  viability at 1 µM: 94%
[1]; [14]
  viability at 10 µM: 92%
[1]; [34]
  Survival rate of Vcap cells: 77.1%
[1]; [37]
  Survival rate of Vcap cells: 78.7%
[1]; [35]
  Survival rate of Vcap cells: 69.0%
[1]; [38]
  Survival rate of Vcap cells: 64.1%
[1]; [36]
  Survival rate of Vcap cells: 67.1%
[1]; [39]
  Survival rate of Vcap cells: 61.5%
